Assay results reported in US20240148664A1, “LIPID AND COMPOSITION” (SOGO PHARMACEUTICAL CO., LTD., priority 2021, published 2024).

Assays:
[1] = siRNA / mRNA encapsulation rate of lipid nanoparticle (RiboGreen); format: physicochemical
Summary of the method: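 LNP solution was read with RiboGreen (ex 480/em 520 nm) with and without 1% Triton X-100 disruption (2 pmol siRNA or mRNA per 40 μL). Encapsulation (%) = (a−b)/a×100, a = total and b = free RNA signal, each a blank-subtracted mean of three readings.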

[2] = test system: HT1080-EGFP (human/fibrosarcoma) cells; assay: Evaluation of toxicity: CCK-8 assay; format: cell-based; details: lipid nanoparticle containing siRNA; absorbance relative to control cells without lipid nanoparticle set at 1.00
Procedure: A. Provision of Cells • (i) A liquid medium (DMEM/Ham's F12, FBS+, P/S+) (FBS: fetal bovine serum, P/S: antibiotic) was taken out from a refrigerator and temperature-controlled in an incubator set at 37° C. • (ii) A cryotube containing the cells was taken out from a −80° C. freezer and thawed at once in an incubator set at 37° C. • (iii) A stock solution of the thawed cells was collected in a capped test tube. • (iv) The tube containing the cells was washed with the liquid medium, and the wash was also collected in the test tube. • (v) The tube was subjected to a centrifuge to precipitate the cells. • (vi) The supernatant was aspirated, and the liquid medium was added and gently tapped to disperse the cells. • (vii) A small amount of the cells-dispersed liquid medium was collected, and the number of cells was observed and counted under a microscope. • (viii) The cells were seeded in a 24-well plate such that the number of cells was 2×10^4 cells per well. For the plate for an LDH assay described later, the cells were seeded in a 96-well plate such that the number of cells was 4×10^3 cells per well. • (ix) The 24-well plate or the 96-well plate was placed in an incubator, and the cells were cultured for 24 hours under conditions of 37° C. and 5% CO2.
The produced lipid nanoparticles were introduced into cells. • (i) Fetal bovine serum (FBS) was added to a liquid medium (FBS-, P/S-) temperature-controlled as in (i) of A above, in such a way as to reach 10%. • (ii) A 24-well plate was taken out from an incubator, and the liquid medium supernatant in the 24-well plate was aspirated and washed with phosphate buffered saline (PBS). • (iii) 400 μL of the liquid medium produced in (i) above was added to the washed 24-well plate. In addition, 100 μL of an LNP solution having an adjusted concentration was added. • (iv) The 24-well plate was placed in the incubator, and the cells were cultured (for 24 hours). • (v) After 24 hours, the liquid medium supernatant in the 24-well plate was aspirated, and 500 μL of a liquid medium containing 10% FBS (FBS+/P/S+) was added. • (vi) The 24-well plate was placed in the incubator, and the cells were cultured for 24 hours under conditions of 37° C. and 5% CO2.
For Examples 1 to 9, a CCK-8 assay or an LDH assay was carried out to measure the metabolic activity of viable cells and relatively quantify the number of surviving cells to evaluate the toxicity of lipid nanoparticles.
(a) CCK-8 Assay • (i) Fetal bovine serum (FBS) and a viable cell counting kit (manufactured by DOJINDO LABORATORIES, Cell Count Kit-8) was added to a liquid medium (FBS-, P/S-) temperature-controlled as in (i) of A above, such that FBS was 10% and the kit was 10%. • (ii) A 24-well plate was taken out from an incubator. The liquid medium was removed, and 315 μL of the liquid medium containing the viable cell counting kit produced in (i) above was added. • (iii) The liquid medium was aged for 1 hour in the incubator. • (iv) The 24-well plate was taken out, and the absorbance was measured under conditions of a measurement wavelength of 450 nm and a target wavelength of 630 nm with a plate reader (manufactured by TECAN, Infinite M200). The absorbance was calculated with the absorbance of control cells to which no lipid nanoparticle was added set at 1.00. When the obtained value was 0.80 or more and 1.00 or less, a rating of double-circle (excellent) was given, when the obtained value was 0.50 or more and less than 0.80, a rating of circle (good) was given, when the obtained value was 0.20 or more and less than 0.50, a rating of triangle (fair) was given, and when the obtained value was less than 0.20, a rating of X-mark (poor) was given.

[3] = siRNA encapsulation rate of lipid nanoparticle

Row | Compound | Encapsulation rate (%) ([1]; mRNA lipid nanoparticle for in vivo experiment, PEG-modified lipid (PEG2000-DMG 1.5 mol %) present) | Encapsulation rate (%) ([1]; mRNA lipid nanoparticle for in vivo experiment, PEG-modified lipid absent) | Encapsulation rate (%) [1, 3] [%] | CCK Assay [2]
1 | CCCCCCCC/C=C\CCCCCCCCC(CCCCCCC/C=C\CCCCCCCC)OC(=O)C(CCC(=O)O)NC(=O)C(N)CCCNC(=N)N (stereo not drawn) [Example 2, 4-(2-amino-5-guanidinopentanamido)-5-(((9Z,27Z)-hexatriaconta-9,27-dien-18-yl)oxy)-5-oxopentanoic acid] | 93.2 | 91.3 | 99 | ⊚ (When the obtained value was 0.80 or more and 1.00 or less, a rating of double-circle (excellent) was given)
2 | CCCCCCCC/C=C\CCCCCCCCC(CCCCCCC/C=C\CCCCCCCC)OC(=O)C(NC(=O)C(N)CCCNC(=N)N)C(C)O [Example 5, (9Z,27Z)-hexatriaconta-9,27-dien-18-yl (2S)-2-((S)-2-amino-5-guanidinopentanamido)-3-hydroxybutanoate] |  |  | 100 | 
3 | CCCCCCCC/C=C\CCCCCCCCC(CCCCCCC/C=C\CCCCCCCC)OC(=O)C(CC(=O)O)NC(=N)N (stereo not drawn) [Comparative Example 2, 3-guanidino-4-(((9Z,27Z)-hexatriaconta-9,27-dien-18-yl)oxy)-4-oxobutanoic acid, reference compound] |  |  | 95 | 
4 | CCCCCCCC/C=C\CCCCCCCCC(CCCCCCC/C=C\CCCCCCCC)OC(=O)C(CO)NC(=O)C(N)CCCNC(=N)N [Example 4, (9Z,27Z)-hexatriaconta-9,27-dien-18-yl (2S)-2-((S)-2-amino-5-guanidinopentanamido)-3-hydroxypropionate] |  |  | 100 | ◯ (when the obtained value was 0.50 or more and less than 0.80, a rating of circle (good) was given)
5 | CCCCCCCC/C=C\CCCCCCCCC(CCCCCCC/C=C\CCCCCCCC)OC(=O)[C@H](CCSC)NC(=O)[C@@H](N)CCCNC(=N)N (stereo partly drawn) [Example 6, (9Z,27Z)-hexatriaconta-9,27-dien-18-yl arginylmethioninate] |  |  | 100 | 
6 | CCCCCCCC/C=C\CCCCCCCCC(CCCCCCC/C=C\CCCCCCCC)OC(=O)C(CC(=O)O)NC(=O)C(N)CCCNC(=N)N (stereo not drawn) [Example 1, 3-(2-amino-5-guanidinopentanamido)-4-(((9Z,27Z)-hexatriaconta-9,27-dien-18-yl)oxy)-4-oxobutanoic acid] |  |  | 99 | ⊚ (When the obtained value was 0.80 or more and 1.00 or less, a rating of double-circle (excellent) was given)
7 | CCCCCCCC/C=C\CCCCCCCCC(CCCCCCC/C=C\CCCCCCCC)OC(=O)C(CCC(=O)O)NC(=N)N (stereo not drawn) [Comparative Example 3, 4-guanidino-5-(((9Z,27Z)-hexatriaconta-9,27-dien-18-yl)oxy)-5-oxopentanoic acid, reference compound] |  |  | 95 | 
